Laboratory results from patent US20040192910A1, “Sulfonylamino derivatives useful as herbicides” (priority 2001, published 2004).

Legend:
Assay type in all cases: in vivo
Set-up in all cases: key: 1=total damage; 9=no action
Brachiaria [1] = test: Post-emergence herbicidal action; conditions: 250 g a.i./ha (500 litres water/ha), sprayed at 4- to 6-leaf stage, evaluated after about 18 days; scale of nine ratings, 1 to 4 = good to very good action
From the text: (§1) Post-Emergence Herbicidal Action
(§2) Monocotyledonous and dicotyledonous test plants are raised in a greenhouse in plastic pots containing standard soil and at the 4- to 6-leaf stage are sprayed with an aqueous suspension of the test compounds of formula I (prepared from a 25% wettable powder (Example F3, b) according to WO 97/34485) or with an emulsion of the test compounds of formula I (prepared from a 25% emulsifiable concentrate (Example F1, c) according to WO 97/34485) at a rate of application corresponding to 250 g a.i./ha (500 litres water/ha). The test plants are then grown on in the greenhouse under optimum conditions. After a test duration of about 18 days, the test is evaluated in accordance with a scale of nine ratings (1=total damage, 9=no action). Ratings of from 1 to 4 (especially from 1 to 3) indicate good to very good herbicidal action.

Digitaria [2] = test: Post-emergence herbicidal action; conditions: 250 g a.i./ha (500 litres water/ha), sprayed at 4- to 6-leaf stage, evaluated after about 18 days; scale of nine ratings, 1 to 4 = good to very good action
From the text: as §1, §2

Amarantus [3] = test: Post-emergence herbicidal action; conditions: 250 g a.i./ha (500 litres water/ha), sprayed at 4- to 6-leaf stage, evaluated after about 18 days; scale of nine ratings, 1 to 4 = good to very good action
From the text: as §1, §2

Panicum [4] = test: Post-emergence herbicidal action; conditions: 250 g a.i./ha (500 litres water/ha), sprayed at 4- to 6-leaf stage, evaluated after about 18 days; scale of nine ratings, 1 to 4 = good to very good action
From the text: as §1, §2

Chenopodium [5] = test: Post-emergence herbicidal action; conditions: 250 g a.i./ha (500 litres water/ha), sprayed at 4- to 6-leaf stage, evaluated after about 18 days; scale of nine ratings, 1 to 4 = good to very good action
From the text: as §1, §2

Stellaria = test: Post-emergence herbicidal action; conditions: 250 g a.i./ha (500 litres water/ha), sprayed at 4- to 6-leaf stage, evaluated after about 18 days; scale of nine ratings, 1 to 4 = good to very good action
From the text: as §1, §2

Abutilon [6] = test: Post-emergence herbicidal action; conditions: 250 g a.i./ha (500 litres water/ha), sprayed at 4- to 6-leaf stage, evaluated after about 18 days; scale of nine ratings, 1 to 4 = good to very good action
From the text: as §1, §2

Setaria = test: Post-emergence herbicidal action; conditions: 250 g a.i./ha (500 litres water/ha), sprayed at 4- to 6-leaf stage, evaluated after about 18 days; scale of nine ratings, 1 to 4 = good to very good action
From the text: as §1, §2

Brachiaria [7] = test: Pre-emergence herbicidal action; conditions: 250 g a.i./ha (500 litres water/ha), sprayed immediately after sowing, evaluated after 3 weeks; scale of nine ratings, 1 to 4 = good to very good action
From the text: (§3) Herbicidal Action Prior to Emergence of the Plants (Pre-Emergence Action) Monocotyledonous and dicotyledonous test plants are sown in standard soil in plastic pots. Immediately after sowing, an aqueous suspension (prepared from a 25% wettable powder (Example F3, b) according to WO 97/34485) or an emulsion (prepared from a 25% emulsifiable concentrate (Example F1, c)) of the test compounds is applied by spraying at a rate of application corresponding to 250 […]). The test plants are then cultivated in a greenhouse under optimum conditions.

Digitaria [8] = test: Pre-emergence herbicidal action; conditions: 250 g a.i./ha (500 litres water/ha), sprayed immediately after sowing, evaluated after 3 weeks; scale of nine ratings, 1 to 4 = good to very good action
From the text: as §3

Amarantus [9] = test: Pre-emergence herbicidal action; conditions: 250 g a.i./ha (500 litres water/ha), sprayed immediately after sowing, evaluated after 3 weeks; scale of nine ratings, 1 to 4 = good to very good action
From the text: as §3

Panicum [10] = test: Pre-emergence herbicidal action; conditions: 250 g a.i./ha (500 litres water/ha), sprayed immediately after sowing, evaluated after 3 weeks; scale of nine ratings, 1 to 4 = good to very good action
From the text: as §3

Echinochloa = test: Pre-emergence herbicidal action; conditions: 250 g a.i./ha (500 litres water/ha), sprayed immediately after sowing, evaluated after 3 weeks; scale of nine ratings, 1 to 4 = good to very good action
From the text: as §3

Euphoria = test: Pre-emergence herbicidal action; conditions: 250 g a.i./ha (500 litres water/ha), sprayed immediately after sowing, evaluated after 3 weeks; scale of nine ratings, 1 to 4 = good to very good action
From the text: as §3

Chenopodium [11] = test: Pre-emergence herbicidal action; conditions: 250 g a.i./ha (500 litres water/ha), sprayed immediately after sowing, evaluated after 3 weeks; scale of nine ratings, 1 to 4 = good to very good action
From the text: as §3

Abutilon [12] = test: Pre-emergence herbicidal action; conditions: 250 g a.i./ha (500 litres water/ha), sprayed immediately after sowing, evaluated after 3 weeks; scale of nine ratings, 1 to 4 = good to very good action
From the text: as §3

Structure (SMILES) | Post-emergence action, rating, Brachiaria (Brachiaria [1]) | Post-emergence action, rating, Digitaria (Digitaria [2]) | Post-emergence action, rating, Amarantus (Amarantus [3]) | Post-emergence action, rating, Panicum (Panicum [4]) | Post-emergence action, rating, Chenopodium (Chenopodium [5]) | Post-emergence action, rating, Stellaria (Stellaria) | Post-emergence action, rating, Abutilon (Abutilon [6]) | Post-emergence action, rating, Setaria (Setaria) | Pre-emergence action, rating, Brachiaria (Brachiaria [7]) | Pre-emergence action, rating, Digitaria (Digitaria [8]) | Pre-emergence action, rating, Amarantus (Amarantus [9]) | Pre-emergence action, rating, Panicum (Panicum [10]) | Pre-emergence action, rating, Echinochloa (Echinochloa) | Pre-emergence action, rating, Euphoria (Euphoria) | Pre-emergence action, rating, Chenopodium (Chenopodium [11]) | Pre-emergence action, rating, Abutilon (Abutilon [12])
Cc1nc(C(F)(F)F)ccc1C(=O)C1=C(Cl)C(C)(C)C(=O)C(C)(C)C1=NS(C)(=O)=O [1.001, N-[3-chloro-4,4,6,6-tetramethyl-2-(2-methyl-6-trifluoromethyl-pyridine-3-carbonyl)-5-oxo-cyclohex-2-en-ylidene]-methanesulfonamide] | 1 | 1 | 2 | 1 | 2 | 2 | 2 | 1 |  |  |  |  |  |  |  | 
Cc1nc(C(F)(F)F)ccc1C(=O)C1=C(Cl)C(C)(C)C(=O)C(C)(C)C1=NS(=O)(=O)c1cccnc1F [1.026, N-[3-chloro-5-oxo-4,4,6,6-tetramethyl-2-(2-methyl-6-trifluoromethyl-pyridine-3-carbonyl)-cyclohex-2-en-ylidene]-3-(2′-fluoropyridyl)sulfonamide] | 2 | 1 | 1 | 1 | 1 | 2 | 1 | 1 | 1 | 1 | 1 | 1 | 1 | 2 | 1 | 1
Cc1nc(C(F)(F)F)ccc1C(=O)C1=C(Cl)C(C)(C)C(=O)C(C)(C)C1=NS(=O)(=O)c1ccccc1 [1.027] | 2 | 2 | 2 | 2 | 1 | 1 | 1 | 1 | 1 | 1 | 1 | 1 | 1 | 1 | 1 | 1
C=CS(=O)(=O)N=C1C(C(=O)c2ccc(C(F)(F)F)nc2C)=C(Cl)C(C)(C)C(=O)C1(C)C [1.028, N-[3-chloro-3-oxo-4,4,6,6-tetramethyl-2-(2-methyl-6-trifluoromethyl-pyridine-3-carbonyl)-cyclohex-2-en-ylidene]-vinylsulfonamide] | 2 | 1 | 2 | 1 | 1 | 1 | 1 | 1 | 1 | 3 | 1 | 1 | 1 | 2 | 1 | 1
CSC1=C(C(=O)c2ccc(C(F)(F)F)nc2C)C(=NS(=O)(=O)c2cccnc2F)C(C)(C)C(=O)C1(C)C [1.078, N-[3-methylthio-5-oxo-4,4,6,6-tetramethyl-2-(2-methyl-6-trifluoromethyl-pyridine-3-carbonyl)-cyclohex-2-en-ylidene]-3-(2′-fluoropyridyl)sulfonamide] | 3 | 1 | 2 | 1 | 1 | 3 | 1 | 2 | 2 | 1 | 1 | 1 | 1 | 2 | 1 | 1
CSC1=C(C(=O)c2ccc(C(F)(F)F)nc2C)C(=NS(=O)(=O)c2ccccc2)C(C)(C)C(=O)C1(C)C [1.079] | 2 | 2 | 2 | 2 | 1 | 1 | 2 | 2 | 1 | 1 | 1 | 1 | 1 | 2 | 1 | 1
